In patent US20240368133A1, “Compounds for the Treatment of Pain, in Particular, Neuropathic Pain, and/or Other Diseases or Disorders that are Associated with AT2R and/or AT2R Mediated Signaling” (Confo Therapeutics N.V., priority 2021, published 2024):

Molecular target: human AT2R fused to Cb23 (Homo sapiens, UniProt P50052)
Assay: Radioligand binding assay, displacement of 125I-[Sar1, Ile8]-Angiotensin II, hAT2R Cb23
Settings: displacement of 125I-[Sar1, Ile8]-Angiotensin II, human AT2R fused to Cb23, HEK-293 cell membrane preparations; read-out: Binding affinity on hAT2R_Cb23 IC50
Description: All synthesized ligands were evaluated in a radioligand assay by displacing ^125I-[Sar1, Ile8]-Angiotensin II (Perkin Elmer, NEX248050UC) from human AT2R fused to Cb23 or human/rodent/cynomolgus/minipig/dog WT AT2R in HEK-293 cells membrane preparations, using C21 (Vicore Pharma) and Angiotensin II (endogenous ligand) as reference. The affinity was determined using an eight-point dose-response curve, each point performed in duplicates. The compounds were also evaluated in a counterscreen binding assay for displacement of ^125I-[Sar1, Ile8]-Angiotensin II binding to human AT1R in HEK-293 cell membranes. For AT1R, the percent displacement was determined at 1 μM and […] (in duplicates) or using an eight-point dose-response curve, each point performed in duplicates with Candesartan and Losartan used as reference.
For the AT2R/AT1R binding assays, cell membranes, expressing AT2R_Cb23, AT2R or AT1R, were incubated with 0.05 nM ^125I-[Sarl, Ile8]-Ang II. The ligand competition assay was performed in a total volume of 100 μL assay buffer (50 mM Tris, 5 mM MgCl2, 1 mM EDTA, 0.1% BSA, pH 7.4), at concentrations ranging from […] to 10 μM. For each experiment, each ligand concentration was tested in duplicate. Non-specific binding (NSB) was determined by the inclusion of 10 μM unlabeled [Sarl]-Ang II (Sigma Aldrich). The reaction was initiated by the addition of radioligand, after which the plates were incubated at 25° C. for one hour. The reaction was terminated by rapid filtration using a vacuum harvester, applying six washes with 100 μL of ice-cold wash buffer (50 mM Tris.HCl, pH 7.4). The filter plates GF/C (Perkin Elmer) were pre-soaked in 0.5% PEI. The residual amount of radioactivity was determined via liquid scintillation counting. IC50 values, representing the concentration at which each ligand displaced 50% of ^125I-[Sarl, Ile8]-Ang II, were calculated using GraphPad Prism 7.02 by applying a Non-linear regression equation (variable slope, four parameters) on the data. The obtained values serve as affinity estimates for each ligand and their ability to compete against the radioligand for binding with AT2R or AT1R, respectively.

human AT2R fused to Cb23, sequence (P50052 whole entry, looked up, the tested form may be a part): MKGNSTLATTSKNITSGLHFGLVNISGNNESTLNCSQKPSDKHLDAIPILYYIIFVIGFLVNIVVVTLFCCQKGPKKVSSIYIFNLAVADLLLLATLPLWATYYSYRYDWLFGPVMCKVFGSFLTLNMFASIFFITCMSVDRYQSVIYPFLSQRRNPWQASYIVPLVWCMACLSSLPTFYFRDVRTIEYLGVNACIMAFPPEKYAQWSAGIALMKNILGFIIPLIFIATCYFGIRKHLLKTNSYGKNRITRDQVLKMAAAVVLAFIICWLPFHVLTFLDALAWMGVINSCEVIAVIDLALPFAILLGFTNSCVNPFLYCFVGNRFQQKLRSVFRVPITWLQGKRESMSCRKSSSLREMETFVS

Row | IC50 | SMILES
1 | 13.3 µM | CC(=O)Nc1cc(-c2nn[nH]n2)c(N2CCN(Cc3nc4ccccc4s3)CC2)cc1C1CC1 [Compound A-131, N-[4-[4-(1,3-benzo-thiazol-2-ylmethyl)-piperazin-1-yl]-2-cyclopropyl-5-(2H-tetrazol-5-yl)phen-yl]acetamide]
2 | 22.7 µM | CCc1cnc(-c2nn[nH]n2)c(N2CCN(Cc3nc4ccccc4s3)CC2)c1 [Compound A-141]
3 | 14.8 µM | c1ccc2sc(CN3CCN(c4cc(C5CC5)ncc4-c4nn[nH]n4)CC3)nc2c1 [Compound A-144, 2-[[4-[2-cycloprop-yl-5-(2H-tetrazol-5-yl)-4-pyridyl]piper-azin-1-yl]methyl]-1,3-benzothiazole]
4 | 33.8 µM | COc1cc(F)c(-c2nn[nH]n2)c(N2CCN(Cc3nc4ccccc4c(=O)[nH]3)CC2)c1 [Compound A-150, 2-[[4-[3-fluoro-5-methoxy-2-(2H-tetrazol-5-yl)phen-yl]piperazin-1-yl]-methyl]-3H-quin-azolin-4-one]
5 | 72.8 µM | COc1cc(F)c(-c2nn[nH]n2)c(N2CCN(Cc3cccnn3)CC2)c1 [Compound A-155, 3-[[4-[3-fluoro-5-methoxy-2-(2H-tetrazol-5-yl)phen-yl]piperazin-1-yl]-methyl]pyridazine]
6 | 11.6 µM | CC(C)Oc1cc(F)c(-c2nn[nH]n2)c(N2CCN(Cc3cccnn3)CC2)c1 [Compound A-156, 3-[[4-[3-fluoro-5-isopropoxy-2-(2H-tetrazol-5-yl)phen-yl]piperazin-1-yl]-methyl]pyridazine]
7 | 34.4 µM | CC(C)Oc1ccc(-c2nn[nH]n2)c(N2CCN(Cc3cccnn3)CC2)c1F [Compound A-157, 3-[[4-[2-fluoro-3-isopropoxy-6-(2H-tetrazol-5-yl)phen-yl]piperazin-1-yl]-methyl]pyridazine]
8 | 44 µM | CCc1cc(-c2nn[nH]n2)c(N2CCN(Cc3cccnn3)CC2)cc1OC(C)C [Compound A-158, 3-[[4-[4-ethyl-5-isopropoxy-2-(2H-tetrazol-5-yl)phen-yl]piperazin-1-yl]-methyl]pyridazine]
9 | 20.7 µM | CCOc1cc(-c2nn[nH]n2)c(N2CCN(Cc3cccnn3)CC2)cc1OC(C)C [Compound A-162, 3-[[4-[4-ethoxy-5-isopropoxy-2-(2H-tetrazol-5-yl)phen-yl]piperazin-1-yl]-methyl]pyridazine]
10 | 22.1 µM | Cc1cc(-c2nn[nH]n2)c(N2CCN(Cc3cccnn3)CC2)cc1CC(C)C [Compound A-166, 3-[[4-[5-isobutyl-4-methyl-2-(2H-tetrazol-5-yl)phen-yl]piperazin-1-yl]-methyl]pyridazine]
11 | 0.442 µM | CC(C)Cc1cc(F)c(-c2nn[nH]n2)c(N2CCC(Cc3ccccn3)CC2)c1 [Compound A-237, 2-[[1-[3-fluoro-5-isobutyl-2-(2H-tetrazol-5-yl)phenyl]-4-piperidyl]methyl]pyridine]
12 | 18.8 µM | CC(C)Cc1ccc(-c2nn[nH]n2)c(CN2CCN(Cc3cccnn3)CC2)c1 [Compound A-238, 3-[[4-[[5-isobutyl-2-(2H-tetrazol-5-yl)phenyl]methyl]-piperazin-1-yl]-methyl]pyridazine]
13 | 36.2 µM | CCc1nc2ccccc2c(=O)n1CC1CCN(c2ccccc2-c2nn[nH]n2)CC1 [Compound A-240, 2-ethyl-3-[[1-[2-(2H-tetrazol-5-yl)-phenyl]-4-piperid-yl]methyl]quin-azolin-4-one]
14 | 42.5 µM | CCc1nc2ccccc2c(=O)n1CC1CCN(c2ccccc2C(=O)NS(=O)(=O)CC)CC1 [Compound A-241, 2-[4-[(2-ethyl-4-oxo-quinazolin-3-yl)methyl]-1-piperidyl]-N-ethyl-sulfonyl-benzamide]
15 | 27.7 µM | CCc1nc2ccc([N+](=O)[O-])cc2c(=O)n1CC1CCN(c2ccccc2-c2nn[nH]n2)CC1 [Compound A-242, 2-ethyl-6-nitro-3-[[1-[2-(2H-tetrazol-5-yl)phenyl]-4-piperidyl]methyl]quinazolin-4-one]
